Converted amounts (≈) assume the structure as drawn.
How the values were obtained:
Assay in all cases: MIC, CLSI broth microdilution
Assay type in all cases: cell-based
[1] = tested on: A. baumannii AABA1009 (Fluoroquinolone-resistant); details: for MIC AABA 1009: Table 2
Method: (§1) Minimum inhibitory concentrations (MIC) were determined by reference Clinical and Laboratory Standards Institute (CLSI) broth microdilution methods per M7-A7 [2006]. Quality control ranges utilizing E. coli ATCC 25922, P. aeruginosa ATCC 27853 and S. aureus ATCC 29213, and interpretive criteria for comparator agents were as published in CLSI M100-S17 [2007]. Briefly, serial two-fold dilutions of the test compounds were prepared at 2× concentration in Mueller Hinton Broth. The compound dilutions were mixed in 96-well assay plates in a 1:1 ratio with bacterial inoculum. The inoculum was prepared by suspension of a colony from an agar plate that was prepared the previous day. Bacteria were suspended in sterile saline and added to each assay plate to obtain a final concentration of 5×10^5 CFU/mL. The plates were incubated at 35° C. for 20 hours in ambient air.

[2] = tested on: A. baumannii AABA1065 (Fluoroquinolone-susceptible); details: for MIC AABA 1065: Table 2
Method: as §1

[3] = tested on: E. coli AECO001 (Fluoroquinolone susceptible, ATCC25922); details: Table 2, 35° C., 20 hours
Method: as §1

[4] = tested on: E. coli AECO066 (Fluoroquinolone-resistant); details: for MIC AECO 066: Table 2
Method: as §1

[5] = tested on: P. aeruginosa APAE001 (Fluoroquinolone-susceptible, ATCC27853); details: for MIC APAE 001: Table 2
Method: as §1

[6] = tested on: P. aeruginosa APAE054 (Fluoroquinolone-resistant); details: for MIC APAE 054: Table 2
Method: as §1

[7] = tested on: S. aureus ASAU001 (Fluoroquinolone-susceptible, ATCC29213); details: for MIC ASAU 001: Table 2
Method: as §1

[8] = tested on: S. aureus ASAU1031 (Fluoroquinolone-resistant); details: for MIC ASAU 1031: Table 2
Method: as §1

[9] = tested on: S. pneumoniae ASPN001 (Fluoroquinolone-susceptible, ATCC49619); details: for MIC ASPN 001: Table 2
Method: as §1

[10] = tested on: S. pneumoniae ASPN1027 (Fluoroquinolone-resistant); details: for MIC ASPN 1027: Table 2
Method: as §1

MIC AABA 1009 [1] | MIC AECO 066 [4] | MIC APAE 054 [6] | MIC ASAU 1031 [8] | MIC ASPN 001 [9] | MIC ASPN 1027 [10] | MIC ([1]; Acinetobacter baumannii, Table 2, read-out: MIC AABA 1009) [µg/mL] | MIC ([2]; Acinetobacter baumannii, Table 2, read-out: MIC AABA 1065) [µg/mL] | MIC ([3]; Escherichia coli, read-out: MIC AECO 001) [µg/mL] | MIC ([4]; Escherichia coli, Table 2, read-out: MIC AECO 066) [µg/mL] | MIC ([5]; Pseudomonas aeruginosa, Table 2, read-out: MIC APAE 001) [µg/mL] | MIC ([6]; Pseudomonas aeruginosa, Table 2, read-out: MIC APAE 054) [µg/mL] | MIC ([7]; Staphylococcus aureus, Table 2, read-out: MIC ASAU 001) [µg/mL] | MIC ([8]; Staphylococcus aureus, Table 2, read-out: MIC ASAU 1031) [µg/mL] | MIC ([9]; Streptococcus pneumoniae, Table 2, read-out: MIC ASPN 001) [µg/mL] | MIC ([10]; Streptococcus pneumoniae, Table 2, read-out: MIC ASPN 1027) [µg/mL] | Structure (SMILES) | MIC AABA 1065 [2] | MIC AECO 001 [3] | MIC APAE 001 [5] | MIC ASAU 001 [7]
C (MIC's of greater than 8.0 μg/mL = C) | C (MIC's of greater than 8.0 μg/mL = C) | C (MIC's of greater than 8.0 μg/mL = C) | C (MIC's of greater than 8.0 μg/mL = C) | C (MIC's of greater than 8.0 μg/mL = C) | C (MIC's of greater than 8.0 μg/mL = C) | – | – | – | – | – | – | – | – | – | – | O=C(O)c1cn(C2CC2)c2c3c(c(F)cc2c1=O)N1CCCC1CSC3 (centres unmarked) [8/10, 13-Cyclopropyl-8-fluoro-10-oxo-3a,4,5,6,10,13-hexahydro-1H,3H-pyrrolo[2′,1′:3,4][1,4]thiazepino[5,6-h]quinoline-11-carboxylic acid] | B (MIC's of greater than 1.0 μg/mL to 8.0 μg/mL = B) | B (MIC's of greater than 1.0 μg/mL to 8.0 μg/mL = B) | C (MIC's of greater than 8.0 μg/mL = C) | A (MIC's of 1.0 μg/mL or less = A)
C (MIC's of greater than 8.0 μg/mL = C) | C (MIC's of greater than 8.0 μg/mL = C) | C (MIC's of greater than 8.0 μg/mL = C) | C (MIC's of greater than 8.0 μg/mL = C) | C (MIC's of greater than 8.0 μg/mL = C) | C (MIC's of greater than 8.0 μg/mL = C) | – | – | – | – | – | – | – | – | – | – | O=C1Cc2c(c(F)cc3c(=O)c(C(=O)O)cn(C4CC4)c23)N2CCCC2C1 (centres unmarked) [27/10, 4-Cyclopropyl-12-fluoro-1,6-dioxo-4,5,6,7,7a,8,9,10-octahydro-1H-pyrrolo[1′,2′:1,7]azepino[2,3-h]quinoline-2-carboxylic acid] | B (MIC's of greater than 1.0 μg/mL to 8.0 μg/mL = B) | B (MIC's of greater than 1.0 μg/mL to 8.0 μg/mL = B) | C (MIC's of greater than 8.0 μg/mL = C) | B (MIC's of greater than 1.0 μg/mL to 8.0 μg/mL = B)
– | – | – | – | – | – | > 8 | 1 to 8 (≈ 2.81 to 22.4 µM) | ≤ 1 | > 8 | > 8 | > 8 | ≤ 1 | 1 to 8 (≈ 2.81 to 22.4 µM) | ≤ 1 | > 8 | O=C(O)c1cn(C2CC2)c2c3c(c(F)cc2c1=O)N1CCC[C@H]1CCC3 [1/10] | – | – | – | –

Structure (SMILES) | MIC AABA 1009 [1] | MIC AECO 066 [4] | MIC APAE 054 [6] | MIC ASAU 1031 [8] | MIC ASPN 001 [9] | MIC ASPN 1027 [10] | MIC ([1]; Acinetobacter baumannii, Table 2, read-out: MIC AABA 1009) [µg/mL] | MIC ([2]; Acinetobacter baumannii, Table 2, read-out: MIC AABA 1065) [µg/mL] | MIC ([3]; Escherichia coli, read-out: MIC AECO 001) [µg/mL] | MIC ([4]; Escherichia coli, Table 2, read-out: MIC AECO 066) [µg/mL] | MIC ([5]; Pseudomonas aeruginosa, Table 2, read-out: MIC APAE 001) [µg/mL] | MIC ([6]; Pseudomonas aeruginosa, Table 2, read-out: MIC APAE 054) [µg/mL] | MIC ([7]; Staphylococcus aureus, Table 2, read-out: MIC ASAU 001) [µg/mL] | MIC ([8]; Staphylococcus aureus, Table 2, read-out: MIC ASAU 1031) [µg/mL] | MIC ([9]; Streptococcus pneumoniae, Table 2, read-out: MIC ASPN 001) [µg/mL] | MIC ([10]; Streptococcus pneumoniae, Table 2, read-out: MIC ASPN 1027) [µg/mL] | MIC AABA 1065 [2] | MIC AECO 001 [3] | MIC APAE 001 [5] | MIC ASAU 001 [7]
N[C@H]1C[C@H]2CCCc3c(c(F)cc4c(=O)c(C(=O)O)cn(C5CC5)c34)N2C1.O=C(O)C(F)(F)F [7B/17, (7aR,9S)-9-Amino-4-cyclopropyl-12-fluoro-1-oxo-4,5,6,7,7a,8,9,10-octahydro-1H-pyrrolo[1′,′:1,7]-azepino[2,3-h]quinoline-2-carboxylic acid trifluoroacetate] | C (MIC's of greater than 8.0 μg/mL = C) | B (MIC's of greater than 1.0 μg/mL to 8.0 μg/mL = B) | C (MIC's of greater than 8.0 μg/mL = C) | B (MIC's of greater than 1.0 μg/mL to 8.0 μg/mL = B) | A (MIC's of 1.0 μg/mL or less = A) | B (MIC's of greater than 1.0 μg/mL to 8.0 μg/mL = B) | – | – | – | – | – | – | – | – | – | – | A (MIC's of 1.0 μg/mL or less = A) | A (MIC's of 1.0 μg/mL or less = A) | B (MIC's of greater than 1.0 μg/mL to 8.0 μg/mL = B) | A (MIC's of 1.0 μg/mL or less = A)
N[C@@H]1CCN2c3c(F)cc4c(=O)c(C(=O)O)cn(C5CC5)c4c3C=NC[C@H]12.O=C(O)C(F)(F)F [26/16, (3aR,4R)-4-Amino-13-cyclopropyl-8-fluoro-10-oxo-3a,4,5,6,10,13-hexahydro-3H-pyrrolo[2′,1′:3,4][1,4]diazepino[5,6-h]quinoline-11-carboxylic acid trifluoroacetate] | C (MIC's of greater than 8.0 μg/mL = C) | C (MIC's of greater than 8.0 μg/mL = C) | C (MIC's of greater than 8.0 μg/mL = C) | C (MIC's of greater than 8.0 μg/mL = C) | B (MIC's of greater than 1.0 μg/mL to 8.0 μg/mL = B) | C (MIC's of greater than 8.0 μg/mL = C) | – | – | – | – | – | – | – | – | – | – | B (MIC's of greater than 1.0 μg/mL to 8.0 μg/mL = B) | A (MIC's of 1.0 μg/mL or less = A) | B (MIC's of greater than 1.0 μg/mL to 8.0 μg/mL = B) | B (MIC's of greater than 1.0 μg/mL to 8.0 μg/mL = B)

Reference: patent US20120058989A1, “ANTIBACTERIAL FLUOROQUINOLONE ANALOGS” (Achaogen, Inc., priority 2008, published 2012)
